Reference: ChEMBL document CHEMBL1158969, “Studies on the synthesis of sesquiterpene lactones, 12. Synthesis of (+)-colartin, (+)-arbusculin A, and their C-4 epimers and their biological activities” (1991)
Activity calls are given as the source filed them.

Legend:
Type in all cases: functional, organism-based
[1] = tested on: Cucumis sativus; assay: Growth regulatory activity on Cucumis sativus stem assessed as inhibition of germination and seedling growth at 500 ppm after 10 days
[2] = tested on: Echinochloa frumentacea; assay: Growth regulatory activity on Echinochloa frumentacea stem assessed as inhibition of germination and seedling growth at 500 ppm after 10 days
[3] = tested on: Cucumis sativus; assay: Growth regulatory activity on Cucumis sativus root assessed as complete inhibition of germination and seedling growth at 500 ppm after 10 days
[4] = tested on: Cucumis sativus; assay: Growth regulatory activity on Cucumis sativus root assessed as complete inhibition of germination and seedling growth at 1000 ppm after 10 days
[5] = tested on: Brassica juncea; assay: Growth regulatory activity on Brassica juncea root assessed as inhibition of germination and seedling growth at 500 ppm after 10 days
[6] = tested on: Cucumis sativus; assay: Growth regulatory activity on Cucumis sativus root assessed as inhibition of germination and seedling growth at 250 ppm after 10 days
[7] = tested on: Echinochloa frumentacea; assay: Growth regulatory activity on Echinochloa frumentacea root assessed as inhibition of germination and seedling growth at 500 ppm after 10 days
[8] = tested on: Echinochloa frumentacea; assay: Growth regulatory activity on Echinochloa frumentacea stem assessed as complete inhibition of germination and seedling growth at 1000 ppm after 10 days
[9] = tested on: Echinochloa frumentacea; assay: Growth regulatory activity on Echinochloa frumentacea root assessed as complete inhibition of germination and seedling growth at 1000 ppm after 10 days
[10] = tested on: Cucumis sativus; assay: Growth regulatory activity on Cucumis sativus stem assessed as inhibition of germination and seedling growth at 250 ppm after 10 days
[11] = tested on: Cucumis sativus; assay: Growth regulatory activity on Cucumis sativus stem assessed as inhibition of germination and seedling growth at 1000 ppm after 10 days
[12] = tested on: Brassica juncea; assay: Growth regulatory activity on Brassica juncea stem assessed as complete inhibition of germination and seedling growth at 1000 ppm after 10 days
[13] = tested on: Brassica juncea; assay: Growth regulatory activity on Brassica juncea stem assessed as inhibition of germination and seedling growth at 250 ppm after 10 days
[14] = tested on: Cucumis sativus; assay: Growth regulatory activity on Cucumis sativus stem assessed as complete inhibition of germination and seedling growth at 500 ppm after 10 days
[15] = tested on: Brassica juncea; assay: Growth regulatory activity on Brassica juncea stem assessed as complete inhibition of germination and seedling growth at 500 ppm after 10 days
[16] = tested on: Brassica juncea; assay: Growth regulatory activity on Brassica juncea root assessed as complete inhibition of germination and seedling growth at 1000 ppm after 10 days
[17] = tested on: Cucumis sativus; assay: Growth regulatory activity on Cucumis sativus stem assessed as inhibition of germination and seedling growth at 100 ppm after 10 days
[18] = tested on: Brassica juncea; assay: Growth regulatory activity on Brassica juncea root assessed as inhibition of germination and seedling growth at 250 ppm after 10 days
[19] = tested on: Brassica juncea; assay: Growth regulatory activity on Brassica juncea root assessed as complete inhibition of germination and seedling growth at 500 ppm after 10 days
[20] = tested on: Cucumis sativus; assay: Growth regulatory activity on Cucumis sativus root assessed as inhibition of germination and seedling growth at 100 ppm after 10 days
[21] = tested on: Echinochloa frumentacea; assay: Growth regulatory activity on Echinochloa frumentacea stem assessed as inhibition of germination and seedling growth at 1000 ppm after 10 days
[22] = tested on: Cucumis sativus; assay: Growth regulatory activity on Cucumis sativus root assessed as inhibition of germination and seedling growth at 500 ppm after 10 days
[23] = tested on: Echinochloa frumentacea; assay: Growth regulatory activity on Echinochloa frumentacea root assessed as inhibition of germination and seedling growth at 1000 ppm after 10 days
[24] = tested on: Cucumis sativus; assay: Growth regulatory activity on Cucumis sativus stem assessed as complete inhibition of germination and seedling growth at 1000 ppm after 10 days
[25] = tested on: Brassica juncea; assay: Growth regulatory activity on Brassica juncea root assessed as inhibition of germination and seedling growth at 1000 ppm after 10 days
[26] = tested on: Cucumis sativus; assay: Growth regulatory activity on Cucumis sativus root assessed as inhibition of germination and seedling growth at 1000 ppm after 10 days
[27] = tested on: Brassica juncea; assay: Growth regulatory activity on Brassica juncea stem assessed as inhibition of germination and seedling growth at 1000 ppm after 10 days

Measured: growth inhibition (GI)

C[C@@H]1C(=O)O[C@H]2[C@H]1CC[C@@]1(C)CCC[C@@](C)(O)[C@H]21
active: [1] | [2] | [3] | [4] | [5] | [6] | [7] | [8] | [9] | [10] | [11] | [12]

C=C1C(=O)O[C@@H]2[C@@H]3[C@](C)(CCC[C@@]3(C)O)CC[C@@H]12
not listed: [1] | [5] | [10] | [21] | [22] | [23] | [24] | [25] | [26] | [27]
active: all other assays above

C[C@@H]1C(=O)O[C@H]2[C@H]1CC[C@@]1(C)CC[C@@H](O)[C@@](C)(O)[C@H]21
active: [1] | [2] | [4] | [21] | [22] | [23] | [24] | [25]

CC1=CCC[C@]2(C)CC[C@@H]3[C@H](OC(=O)[C@H]3C)[C@@H]12
active: [22] | [26]

C[C@@H]1C(=O)O[C@H]2[C@H]1CC[C@@]1(C)CC=C[C@@](C)(O)[C@H]21
active: [3] | [4] | [5] | [27] | [16] | [21] | [6] | [7] | [9] | [10] | [24]
